Like-named read-outs stand apart in the source and are kept apart here. Bridge positions count the residues as written; N and C are the ends. Square brackets hold non-standard residues; d marks the D form. Peptide text beside a SMILES is read from it. * marks the point of attachment. Ileψ(thiazoline)Cys = CC[C@H](C)[C@H](N)C1=N[C@H](C(=O)*)CS1; dOrn = NCCC[C@@H](N)C(=O)O
Tests used:
MRSA USA300 (BAA-1680) [1] = assay: microbe, parasite or virus in culture; format: cell-based, Staphylococcus aureus; conditions: for bactericidal activity in combination with bacitracin: FIG. 2
Excerpt: (§1) MRSA (ATCC 33593), MSSA (ATCC 29213), and MRSA USA300 (BAA-1680) strains were purchased from the American Type Culture Collection (ATCC; Manassas, Va.). Eight clinical isolates of MRSA were obtained from the Culture Collection of Antimicrobial Resistant Microbes, Korea National Research Resource Center (KNRRC). Salmonella enterica Typhimurium LT2 was purchased from ATCC, and Escherichia coli O157:H7 is a kind gift from Dr. Sangryeol Ryu (Seoul National University, South Korea). All S. aureus strains were maintained in Trypticase Soy (TS) medium, and E. coli O157:H7 and Salmonella were routinely grown aerobically on Luria-Bertani (LB) media at 37° C. For measuring growth kinetics, an overnight culture of MRSA in Mueller-Hinton (MH) broth was diluted 100-fold in fresh MH broth and cultured until early exponential phase. The culture (200 μl) was transferred to each well of a sterile 96-well plate and incubated at 37° C. with bacitracin alone, alkyl gallate alone, and combination of bacitracin/alkyl gallates at various concentrations. The optical density at 600 nm (OD600) was measured every hour with FLUOstar® Omega (BMG Labtech, Germany).
(§2) Broth micro dilution assays were performed to determine the minimum inhibitory concentrations (MIC) accordance to the M7-A7 protocol of the Clinical and Laboratory Standards Institute (CLSI) guidelines^28. The susceptibility test was carried out with an initial bacterial inoculum of 1.5×10^5 CFU ml^−1. Alkyl gallates and bacitracin were serially diluted in a polystyrene 96 well plate and the plate was incubated at 37° C. for 24 h. Minimum bactericidal concentration (MBC) was determined by spotting 10 μl of cultures from MIC tests onto MH agar and incubated aerobically at 37° C.

MRSA USA300 (BAA-1680) [2] = assay: Growth kinetics (OD600) with bacitracin, alkyl gallates and combinations; format: cell-based, Staphylococcus aureus; conditions: for growth inhibition by bacitracin in combination with alkyl gallate: bacitracin 0.001 U to 100 U
Excerpt: as §1

USA300 = assay: Bacterial membrane permeability (propidium iodide fluorescence); format: cell-based, Staphylococcus aureus; conditions: agent alone, sub-MIC levels, EDTA 1 mM
Procedure: Membrane permeability was determined by measuring fluorescence after exposure of USA300 to propidium iodide as described previously^29. Briefly, USA300 was grown in MH broth to the exponential phase and then diluted to OD600≈0.25. Propidium iodide was mixed with bacteria to a final concentration of 10 μM. […] Fluorescence was monitored at excitation and emission wavelengths of 585 nm and 620 nm, respectively, for 1 h using FLUOstar Omega® (BMG Labtech, Germany). The membrane permeability was calculated by subtracting fluorescence intensity of controls without treatment with phenolic compounds from that of treated samples. EDTA (1 mM) was used as a positive control.

MRSA 3095 = assay: microbe, parasite or virus in culture; format: cell-based, Staphylococcus aureus; conditions: MRSA 3095 (human/skin)
Excerpt: as §1, §2

MRSA 3795 = assay: microbe, parasite or virus in culture; format: cell-based, Staphylococcus aureus; conditions: MRSA 3795 (human/nose)
Excerpt: as §1, §2

MRSA 3799 = assay: microbe, parasite or virus in culture; format: cell-based, Staphylococcus aureus; conditions: MRSA 3799 (human/nose)
Excerpt: as §1, §2

MRSA 3823 = assay: microbe, parasite or virus in culture; format: cell-based, Staphylococcus aureus; conditions: MRSA 3823 (human/nose)
Excerpt: as §1, §2

MRSA 3865 = assay: microbe, parasite or virus in culture; format: cell-based, Staphylococcus aureus; conditions: MRSA 3865 (human/skin)
Excerpt: as §1, §2

MRSA 3876 = assay: microbe, parasite or virus in culture; format: cell-based, Staphylococcus aureus; conditions: MRSA 3876 (human/skin)
Excerpt: as §1, §2

MRSA 3903 = assay: microbe, parasite or virus in culture; format: cell-based, Staphylococcus aureus; conditions: MRSA 3903 (human/skin)
Excerpt: as §1, §2

MRSA 3A585 = assay: microbe, parasite or virus in culture; format: cell-based, Staphylococcus aureus; conditions: MRSA 3A585 (human/blood)
Excerpt: as §1, §2

MRSA (ATCC 33593) = assay: microbe, parasite or virus in culture; format: cell-based, Staphylococcus aureus; conditions: MRSA; for MIC: antioxidant alone
Excerpt: as §1, §2
(§3) MICs were determined with MRSA and methicillin-sensitive S. aureus (MSSA) using a broth dilution method as described above.
(§4) MRSA and MSSA were cultured overnight with antioxidants (0.5 μg/ml) and bacitracin at various concentrations and 10 μL of the culture was spotted on MH agar plates and incubated aerobically at 37° C. to observe the bacterial viability. The results in FIGS. 9A, 9B, 9C and 9D (photographs of plates) show the Minimal Bactericidal Concentrations (MBCs) for indicated antioxidants. Bacitracin killed MRSA and MSSA at concentrations greater than or equal to 2 μg/mi.

MSSA (ATCC 29213) = assay: MIC (broth dilution) and MBC (spotting) of phenolic antioxidants and bacitracin; format: cell-based, Staphylococcus aureus; conditions: for MIC: antioxidant alone
Excerpt: as §1, §2, §3, §4

[3] = tested on: MRSA (normal MRSA strain, not USA300); assay: MRSA growth (optical density) with bacitracin and phenolic antioxidants; format: cell-based, Staphylococcus aureus
Excerpt: as §1
MRSA were grown with bacitracin (0.002 μg/mL) with antioxidant (as shown) at 0.5 μg/mL.
FIG. 7A is growth with no added bacitracin or lauryl gallate.
The optical density of MRSA was measured after 18 h culture with bacitracin (0.002 μg/ml) and antioxidants (as indicated at 0.5 μg/ml). Also measured were controls with no additions, with bacitracin alone and with antioxidant alone. FIGS. 8A, 8B, 8C and 8D are graphs illustrating the results.

Escherichia coli O157:H7 = assay: microbe, parasite or virus in culture; format: cell-based; conditions: E. coli O157:H7; agent alone
Excerpt: as §1, §2
MIC and MBC were measured as described above. MIC and MBC data are shown in Table 5 for both the Salmonella and the E. coli strain tested. The tested strains were highly resistant to bacitracin.

[4] = Staphylococcus aureus, 24 h, agent alone, read-out: MIC
[5] = Staphylococcus aureus, agent alone, read-out: MBC
[6] = Staphylococcus aureus, read-out: MIC
[7] = antioxidant 0.5 μg/ml, compared to bacitracin alone

Compound | MBC (MRSA USA300 (BAA-1680) [1]; agent alone) [µg/mL] | MIC (MRSA USA300 (BAA-1680) [1]; agent alone) [µg/mL] | growth inhibition by bacitracin in combination with alkyl gallate (MRSA USA300 (BAA-1680) [2]) | MIC (MRSA 3095; [6]) [µg/mL] | MIC (MRSA 3795; [6]) [µg/mL] | MIC (MRSA 3799; [6]) [µg/mL] | MIC (MRSA 3823; [6]) [µg/mL] | MIC (MRSA 3865; [6]) [µg/mL] | MIC (MRSA 3876; [6]) [µg/mL] | MIC (MRSA 3903; [6]) [µg/mL] | MIC (MRSA 3A585; [6]) [µg/mL] | also measured
CC[C@H](C)[C@H](N)C1=N[C@H](C(=O)N[C@@H](CC(C)C)C(=O)N[C@H](CCC(=O)O)C(=O)N[C@H](C(=O)N[C@H]2CCCCNC(=O)[C@H](CC(N)=O)NC(=O)[C@@H](CC(=O)O)NC(=O)[C@H](Cc3cnc[nH]3)NC(=O)[C@@H](Cc3ccccc3)NC(=O)[C@H]([C@@H](C)CC)NC(=O)[C@@H](CCCN)NC2=O)[C@@H](C)CC)CS1 [Bacitracin, reference compound] ({Ileψ(thiazoline)Cys}-L[dE]IK[dOrn]I[dF]H[dD]N; lactam 4-C) | 2048 | 1024 | – | – | – | – | – | – | – | – | – | MBC (MRSA USA300 (BAA-1680) [1]; bacitracin alone, in units): 200 U; MIC (MRSA USA300 (BAA-1680) [1]; bacitracin alone, in units): 100 U; growth inhibition by bacitracin only (MRSA USA300 (BAA-1680) [2]; up to 100 U bacitracin, without alkyl gallates): did not inhibit USA300; membrane permeability (USA300): did not affect membrane permeability; MIC (MRSA 3095): 128 µg/mL; MIC (MRSA 3795): 8 µg/mL; MIC (MRSA 3799): 128 µg/mL; MIC (MRSA 3823): 64 µg/mL; MIC (MRSA 3865): 128 µg/mL; MIC (MRSA 3876): 128 µg/mL; MIC (MRSA 3903): 32 µg/mL; MIC (MRSA 3A585): 128 µg/mL; bacitracin MIC for MRSA (MRSA (ATCC 33593); bacitracin alone): 2 µg/mL; concentration of bacitracin alone that killed (MBC) (MRSA (ATCC 33593); bacitracin alone): greater than or equal to 2 μg/mi; concentration of bacitracin alone that killed (MBC) (MSSA (ATCC 29213); bacitracin alone): greater than or equal to 2 μg/mi; MRSA growth inhibition by bacitracin alone ([3]; bacitracin 0.0019 μg/mL to 1 μg/mL, FIG. 7B): did not inhibit MRSA; MBC (Escherichia coli O157:H7): >1024 µg/mL; MIC (Escherichia coli O157:H7): >1024 µg/mL
CCCCOC(=O)c1cc(O)c(O)c(O)c1 [Butyl gallate (BG), Butyl gallate] | – | – | significant growth inhibition | 512 | 512 | 512 | 512 | 512 | 512 | 512 | 512 | bactericidal activity in combination with bacitracin (MRSA USA300 (BAA-1680) [1]): synergistic antimicrobial activity; MIC (MRSA USA300 (BAA-1680) [1]; [4]): 512 µg/mL; MBC (MRSA USA300 (BAA-1680) [1]; [5]): 1020 µg/mL
O=C(O)CN(CCN(CC(=O)O)CC(=O)O)CC(=O)O [EDTA, reference compound] | – | – | – | – | – | – | – | – | – | – | – | membrane permeability (USA300): significantly increased membrane permeability
CCOC(=O)c1cc(O)c(O)c(O)c1 [Ethyl gallate (EG), ethyl gallate] | 256 | 128 | significant growth inhibition | > 1020 | > 1020 | > 1020 | > 1020 | > 1020 | > 1020 | > 1020 | > 1020 | –
COC(=O)c1cc(O)c(O)c(O)c1 [Methyl gallate (MG), methyl gallate] | 256 | 128 | significant growth inhibition | > 1020 | > 1020 | > 1020 | > 1020 | > 1020 | > 1020 | > 1020 | > 1020 | –
CCCOC(=O)c1cc(O)c(O)c(O)c1 [Propyl gallate, propyl gallate] | 256 | 128 | – | > 1020 | 512 | 512 | 512 | > 1020 | > 1020 | > 1020 | > 1020 | fold decrease of bacitracin MBC by antioxidant (MRSA (ATCC 33593); [7]): 8 fold; MIC (MRSA (ATCC 33593)): 512 µg/mL; MIC (MRSA (ATCC 33593); [6]): 256 µg/mL; MIC (MSSA (ATCC 29213); [6]): 128 µg/mL; fold decrease of bacitracin MBC by antioxidant (MSSA (ATCC 29213); [7]): 16 fold; MIC (MSSA (ATCC 29213)): 64 µg/mL; growth of MRSA with bacitracin plus antioxidant ([3]; bacitracin 0.002 μg/mL, antioxidant 0.5 μg/mL, FIG. 6): significantly inhibited the growth of MRSA
CCCCCCCCCCCCCCCCCCOC(=O)c1cc(O)c(O)c(O)c1 [Stearyl gallate (SG), stearyl gallate] | – | – | completely inhibited the growth of USA300 | > 1020 | > 1020 | > 1020 | > 1020 | > 1020 | > 1020 | > 1020 | > 1020 | bactericidal activity in combination with bacitracin (MRSA USA300 (BAA-1680) [1]): killing effect was not as significant as OG, LG, and BG; MIC (MRSA USA300 (BAA-1680) [1]; [4]): 1020 µg/mL; MBC (MRSA USA300 (BAA-1680) [1]; [5]): 2050 µg/mL

Reference: patent US10420815B2, “Combinational therapy for synergistic inhibition of gram-positive and gram-negative bacteria” (priority 2015, dated 2019)
